Test results as given in the supplement of paper PMC8671470.

Tests used:
Conditions in all cases: 72 h
HL-60 [1] = assay: cell viability (% survival relative to DMSO control); higher = less cytotoxic
Procedure, shortened: (§1)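 HL-60 cells in RPMI 1640 with 10% FBS were rescreened against the full library on 384-well plates at five tenfold concentrations, 1–10,000 nM, in duplicate. Each screen was run with DMSO or 100 nM of one of three metabolic inhibitors, for 72 h at 37 °C, 5% CO2. Viability was read by CellTiter-Glo and normalised to DMSO and 10 μM proteasome-inhibitor wells. Where given, area under the curve came from four-parameter log-logistic fits (drc, PharmacoGx).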

[2] = tested on: myeloid leukemia patient primary cells Pat.12; assay: cell viability (% survival relative to DMSO control); higher = less cytotoxic
Procedure, shortened: (§2)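 Seventy compounds were pre-printed on 384-well plates at five tenfold concentrations between 1 and 10,000 nM, in duplicate. Thawed mononuclear cells purified by Ficoll from AML or CML patients were added at 10,000 cells/well in RPMI 1640 with 10% FBS for 72 h. Viability by CellTiter-Glo was normalised to DMSO and 10 μM proteasome-inhibitor wells. Where stated, area under the curve was taken from log-logistic fits made with the drc and PharmacoGx R packages, each fit having four parameters.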

[3] = tested on: myeloid leukemia patient primary cells Pat.13; assay: as above
Procedure, shortened: as §2

[4] = tested on: myeloid leukemia patient primary cells Pat.14; assay: as above
Procedure, shortened: as §2

[5] = tested on: myeloid leukemia patient primary cells Pat.15; assay: as above
Procedure, shortened: as §2

[6] = tested on: myeloid leukemia patient primary cells Pat.2; assay: as above
Procedure, shortened: as §2

[7] = tested on: myeloid leukemia patient primary cells Pat.8; assay: as above
Procedure, shortened: as §2

HL-60 [8] = assay: area under dose-response curve (viability, 1 nM-10 uM) (fraction (0-1)); higher = more sensitive
Procedure, shortened: as §1

[9] = tested on: myeloid leukemia patient primary cells Pat.11; assay: area under dose-response curve (viability, 1 nM-10 uM) (fraction (0-1)); higher = more sensitive
Procedure: (§3)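 AUC (0–1, higher = more sensitive) of the 5-point dose–response (1 nM–10 µM, 72 h, CellTiter-Glo) in primary AML/CML patient mononuclear cells. 0.030103 is the floor for inactive compounds.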

[10] = tested on: myeloid leukemia patient primary cells Pat.12; assay: as above
Procedure: as §3

[11] = tested on: myeloid leukemia patient primary cells Pat.13; assay: as above
Procedure: as §3

[12] = tested on: myeloid leukemia patient primary cells Pat.14; assay: as above
Procedure: as §3

[13] = tested on: myeloid leukemia patient primary cells Pat.15; assay: as above
Procedure: as §3

[14] = tested on: myeloid leukemia patient primary cells Pat.1; assay: as above
Procedure: as §3

[15] = tested on: myeloid leukemia patient primary cells Pat.2; assay: as above
Procedure: as §3

[16] = tested on: myeloid leukemia patient primary cells Pat.3; assay: as above
Procedure: as §3

[17] = tested on: myeloid leukemia patient primary cells Pat.4; assay: as above
Procedure: as §3

[18] = tested on: myeloid leukemia patient primary cells Pat.5; assay: as above
Procedure: as §3

[19] = tested on: myeloid leukemia patient primary cells Pat.6; assay: as above
Procedure: as §3

[20] = tested on: myeloid leukemia patient primary cells Pat.7; assay: as above
Procedure: as §3

[21] = tested on: myeloid leukemia patient primary cells Pat.8; assay: as above
Procedure: as §3

[22] = tested on: myeloid leukemia patient primary cells Pat.9; assay: as above
Procedure: as §3

[23] = tested on: myeloid leukemia patient primary cells Pat.10; assay: as above
Procedure: as §3

CCN(CC)C(=S)SSC(=S)N(CC)CC [Disulfiram]
cell viability [%], HL-60 [1]
Conditions | 0.001 µM | 0.01 µM | 0.1 µM | 1 µM | 10 µM
co-treatment: AZD3965 100 nM | 104 | 101 | 98.7 | 96.7 | 101
co-treatment: DMSO vehicle | 100.9 | 100.4 | 105 | 94 | 98.66
co-treatment: GSK2194069 100 nM | 100 | 95.7 | 102 | 93.1 | 102
co-treatment: pictilisib 100 nM | 105.2 | 86.4 | 107 | 71.25 | 102

Conditions | area under dose-response curve, co-treatment: AZD3965 100 nM | area under dose-response curve, co-treatment: DMSO vehicle | area under dose-response curve, co-treatment: GSK2194069 100 nM | area under dose-response curve, co-treatment: pictilisib 100 nM | cell viability, 1 nM [%] | cell viability, 10 nM [%] | cell viability, 100 nM [%] | cell viability, 1000 nM [%] | cell viability, 10000 nM [%]
HL-60 [8] | < 0.0301 | < 0.0301 | < 0.0301 | < 0.0301 | – | – | – | – | –
[2] | – | – | – | – | 98 | 95.2 | 54 | 3.19 | < 0
[3] | – | – | – | – | 94.8 | 91 | 79.5 | < 0 | 4.12
[4] | – | – | – | – | 89.1 | 93.9 | 87.8 | 60.5 | 21.4
[5] | – | – | – | – | 96.8 | 87.7 | 9.1 | 1.3 | 0.0644
[6] | – | – | – | – | 95.6 | 93.9 | 39.1 | 0.978 | 3.7
[7] | – | – | – | – | 61.6 | 76.7 | 39.6 | 0.473 | 1.14

Conditions | area under dose-response curve
[9] | 0.374
[10] | 0.485
[11] | 0.412
[12] | 0.19
[13] | 0.623
[14] | 0.398
[15] | 0.512
[16] | 0.164
[17] | 0.373
[18] | 0.303
[19] | 0.414
[20] | 0.153
[21] | 0.503
[22] | 0.257

O=c1cc(N2CCOCC2)oc2c(-c3ccccc3)cccc12
cell viability [%], HL-60 [1]
Conditions | 0.001 µM | 0.01 µM | 0.1 µM | 1 µM | 10 µM
co-treatment: AZD3965 100 nM | 99.5 | 101 | 103.3 | 100 | 75.2
co-treatment: DMSO vehicle | 99.2 | 100 | 102 | 91.6 | 86
co-treatment: GSK2194069 100 nM | 107 | 101.4 | 105 | 99.4 | 84
co-treatment: pictilisib 100 nM | 110 | 104 | 103 | 92.2 | 79.6

Conditions | area under dose-response curve, co-treatment: AZD3965 100 nM | area under dose-response curve, co-treatment: GSK2194069 100 nM | area under dose-response curve, co-treatment: pictilisib 100 nM | cell viability, 1 nM [%] | cell viability, 10 nM [%] | cell viability, 100 nM [%] | cell viability, 1000 nM [%] | cell viability, 10000 nM [%]
HL-60 [8] | < 0.0301 | < 0.0301 | 0.058 | – | – | – | – | –
[2] | – | – | – | 91.4 | 98.3 | 92.6 | 97.4 | 92.4
[3] | – | – | – | 88.7 | 95.7 | 83.6 | 91.4 | 45.6
[4] | – | – | – | 86.4 | 56.8 | 91.1 | 77.9 | 58.3
[5] | – | – | – | 77.5 | > 100 | 97 | 81.7 | 10.2
[6] | – | – | – | 92.1 | 87.9 | 99.7 | 91.1 | 67.2
[7] | – | – | – | 88.3 | 86 | 92.4 | 67.1 | 61.5

Conditions | area under dose-response curve
[9] | 0.0446
[10] | < 0.0301
[11] | 0.0372
[12] | 0.0381
[13] | 0.136
[14] | 0.14
[15] | 0.0446
[16] | < 0.0301
[17] | 0.18
[18] | 0.782
[19] | < 0.0301
[20] | < 0.0301
[22] | 0.736
[23] | 0.771

O=C1C(SCCO)=C(SCCO)C(=O)c2ccccc21
cell viability [%], HL-60 [1]
Conditions | 0.001 µM | 0.01 µM | 0.1 µM | 1 µM | 10 µM
co-treatment: AZD3965 100 nM | 102 | 105 | 104 | 95.3 | -0.491
co-treatment: DMSO vehicle | 101 | 104.7 | 99.1 | 102 | 7.09
co-treatment: GSK2194069 100 nM | 99.5 | 98.79 | 97.3 | 102 | 1.87
co-treatment: pictilisib 100 nM | 107.4 | 104 | 95.6 | 75.46 | -0.39

Conditions | area under dose-response curve, co-treatment: AZD3965 100 nM | area under dose-response curve, co-treatment: DMSO vehicle | area under dose-response curve, co-treatment: GSK2194069 100 nM | area under dose-response curve, co-treatment: pictilisib 100 nM | cell viability, 1 nM [%] | cell viability, 10 nM [%] | cell viability, 100 nM [%] | cell viability, 1000 nM [%] | cell viability, 10000 nM [%]
HL-60 [8] | 0.139 | 0.114 | 0.125 | 0.192 | – | – | – | – | –
[2] | – | – | – | – | 94.2 | 99.6 | 92 | 2.07 | < 0
[3] | – | – | – | – | 61.2 | 90.8 | 96.4 | 76.4 | < 0
[4] | – | – | – | – | 41.2 | 91.4 | 61.7 | 5.04 | 4.94
[5] | – | – | – | – | 82.6 | 89.3 | 63.2 | 2.59 | 0.4
[6] | – | – | – | – | 93.1 | > 100 | 97.1 | 55.8 | 0.14
[7] | – | – | – | – | 74.2 | 70 | 95.1 | 65.4 | 0.0301

Conditions | area under dose-response curve
[9] | 0.355
[10] | 0.385
[11] | 0.147
[12] | 0.421
[13] | 0.444
[14] | 0.378
[15] | 0.234
[16] | 0.33
[17] | 0.354
[18] | 0.455
[19] | 0.187
[20] | 0.45
[21] | 0.174
[22] | 0.455
